Measurements published in patent publication US10280165B2, “Pyridopyrimidinones and methods of use thereof” (Genentech, Inc., priority 2015, dated 2019).

Molecular target: HEK cells stably transfected with tetracycline inducible hNR1 and hNR2A (Homo sapiens (Human), UniProt Q05586+Q12879)
Assay: Assay 1: Cell-Based Assay (cytosolic calcium, positive allosteric modulation)
Conditions: for Emax: HEK293, scaled relative to 100 μM L-glutamate maximal response (100%) and 0 μM L-glutamate (0%), with 30 μM glycine and 300 nM L-glutamate, read-out: Max %; for EC50: with 30 μM glycine and 300 nM L-glutamate (EC30), given for compounds reaching maximal response plateaus
Procedure: Assay 1: Cell-Based Assay
HEK cells stably transfected with tetracycline inducible hNR1 and hNR2A were seeded into clear bottom 384 well poly-D-lysine coated plates (2.5×10^4 cells per well) in Minimum Essential Media (MEM; without L-) including 7.5 μg mL doxycycline and 500 μM (+)-ketamine. The cells were incubated at 37° C. in 5% CO2 for 24 h. For measurement of changes in cytosolic calcium, the seeding media was removed and the cells incubated at 37° C. for 60 min with 1× Becton Dickinson Calcium Assay Kit reagent in Hanks Balanced Salt Solution (HBSS; w/o magnesium, including 1.8 mM calcium, 0.65 mg ml^−1 probenecid and 10 μM (+)-ketamine, pH 7.15) then allowed to equilibrate to rt for 30 min. Concentration-effect curves to Positive Allosteric Modulators (PAMs) were constructed by adding different concentrations (with 30 μM glycine and 300 nM L-glutamate (EC30)) to different wells in HBSS. Compounds were added after a 10 second baseline read and maximum level of relative fluorescence units (RFU) was measured over a 5 min period. Responses were scaled relative to 100 μM L-glutamate maximal response (100%) and 0 μM L-glutamate (0%). EC50 values are provided for compounds reaching maximal response plateaus, and the max % (EC50 (--)) only if no plateau was reached.
A four-parameter Hill equation was fitted to individual concentration-effect curves:
[formula] in which Y, S0, Sinf, AC50, n and c were effect, lower-asymptote, upper-asymptote, mid-point location, slope parameter, and concentration respectively.

Chain of HEK cells stably transfected with tetracycline inducible hNR1 and hNR2A (Q12879 23-1464, other chains not shown): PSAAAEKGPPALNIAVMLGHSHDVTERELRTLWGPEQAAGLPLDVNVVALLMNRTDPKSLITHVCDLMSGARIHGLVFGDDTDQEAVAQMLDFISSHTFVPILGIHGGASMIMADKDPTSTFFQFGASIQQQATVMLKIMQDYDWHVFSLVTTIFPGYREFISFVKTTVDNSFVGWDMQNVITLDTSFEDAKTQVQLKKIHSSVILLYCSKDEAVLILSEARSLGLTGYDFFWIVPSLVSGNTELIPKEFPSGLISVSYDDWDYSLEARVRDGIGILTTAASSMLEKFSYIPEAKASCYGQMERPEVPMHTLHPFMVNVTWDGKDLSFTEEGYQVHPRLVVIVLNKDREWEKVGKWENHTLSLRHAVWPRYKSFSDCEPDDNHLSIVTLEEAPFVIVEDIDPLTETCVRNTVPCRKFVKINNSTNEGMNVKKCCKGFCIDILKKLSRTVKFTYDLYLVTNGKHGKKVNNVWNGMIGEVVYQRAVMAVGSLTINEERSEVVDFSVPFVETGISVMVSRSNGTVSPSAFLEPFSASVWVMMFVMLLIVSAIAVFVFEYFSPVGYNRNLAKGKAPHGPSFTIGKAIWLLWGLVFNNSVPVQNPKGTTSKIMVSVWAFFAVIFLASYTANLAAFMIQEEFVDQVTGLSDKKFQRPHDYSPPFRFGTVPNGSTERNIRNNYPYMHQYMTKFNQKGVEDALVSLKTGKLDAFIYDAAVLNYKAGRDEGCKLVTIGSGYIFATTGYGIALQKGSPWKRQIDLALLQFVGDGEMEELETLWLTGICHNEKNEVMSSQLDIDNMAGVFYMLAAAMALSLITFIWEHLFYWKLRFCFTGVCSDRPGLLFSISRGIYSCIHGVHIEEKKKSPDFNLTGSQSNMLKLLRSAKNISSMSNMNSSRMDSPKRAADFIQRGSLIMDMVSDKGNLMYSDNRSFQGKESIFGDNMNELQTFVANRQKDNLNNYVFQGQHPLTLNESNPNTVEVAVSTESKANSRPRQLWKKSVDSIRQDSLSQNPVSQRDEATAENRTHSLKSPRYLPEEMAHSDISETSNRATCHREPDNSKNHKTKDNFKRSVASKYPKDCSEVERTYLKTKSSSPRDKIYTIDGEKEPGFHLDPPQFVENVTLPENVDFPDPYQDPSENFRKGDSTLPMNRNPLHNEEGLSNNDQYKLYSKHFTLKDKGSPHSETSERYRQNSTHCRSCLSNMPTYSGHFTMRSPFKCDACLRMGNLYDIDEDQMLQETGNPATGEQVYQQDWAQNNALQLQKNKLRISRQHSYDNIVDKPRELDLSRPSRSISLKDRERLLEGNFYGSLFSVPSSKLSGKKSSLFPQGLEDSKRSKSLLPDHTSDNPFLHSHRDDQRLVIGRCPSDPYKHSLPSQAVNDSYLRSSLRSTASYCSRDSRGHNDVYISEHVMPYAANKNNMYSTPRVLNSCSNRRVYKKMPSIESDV

Row | Structure (SMILES) | Emax [%] | EC50 [µM]
1 | Cc1ccc2nc(CN(C)c3ccccc3)cc(=O)n2c1 [Compound 2, 7-methyl-2-[(N-methylanilino)methyl]pyrido[1,2-a]pyrimidin-4-one] | 75 | 
2 | CCN(Cc1cc(=O)n2cc(C)ccc2n1)c1ccccc1 [Compound 3, 2-[(N-ethylanilino)methyl]-7-methyl-pyrido[1,2-a]pyrimidin-4-one] | 122 | 11.1
3 | CCN(Cc1cc(=O)n2cc(C)ccc2n1)c1ccc(F)cc1 [Compound 4, 2-[(N-ethyl-4-fluoro-anilino)methyl]-7-methyl-pyrido[1,2-a]pyrimidin-4-one] | 134 | 5.2
4 | CCc1cccc2nc(CN(CC)c3ccc(F)cc3)cc(=O)n12 [Compound 5, 6-ethyl-2-[(N-ethyl-4-fluoro-anilino)methyl]pyrido[1,2-a]pyrimidin-4-one] | 134 | 6.4
5 | CCc1cccc2nc(CN(CC)c3ccccc3)cc(=O)n12 [Compound 6, 6-ethyl-2-[(N-ethylanilino)methyl]pyrido[1,2-a]pyrimidin-4-one] | 138 | 11.5
6 | CCN(Cc1cc(=O)n2c(C)cccc2n1)c1ccc(F)cc1 [Compound 7, 2-[(N-ethyl-4-fluoro-anilino)methyl]-6-methyl-pyrido[1,2-a]pyrimidin-4-one] | 111 | 13.6
7 | CCN(Cc1cc(=O)n2c(OC)cccc2n1)c1ccc(F)cc1 [Compound 8, 2-[(N-ethyl-fluoro-anilino)methyl]-6-methoxy-pyrido[1,2-a]pyrimidin-4-one] | 117 | 
8 | CCOc1cccc2nc(CN(CC)c3ccc(F)cc3)cc(=O)n12 [Compound 9, 6-ethoxy-2-[(N-ethyl-4-fluoro-anilino)methyl]pyrido[1,2-a]pyrimidin-4-one] | 120 | 5
9 | CCN(Cc1cc(=O)n2c(OC)c(C)ccc2n1)c1ccc(F)cc1 [Compound 10, 2-[(N-ethyl-4-fluoro-anilino)methyl]-6-methoxy-7-methyl-pyrido[1,2-a]pyrimidin-4-one] | 51 | 
10 | CCOc1c(C)ccc2nc(CN(CC)c3ccc(F)cc3)cc(=O)n12 [Compound 11, 6-ethoxy-2-[(N-ethyl-4-fluoro-anilino)methyl]-7-methyl-pyrido[1,2-a]pyrimidin-4-one] | 53 | 
11 | CCN(Cc1cc(=O)n2c(-c3cncnc3)cccc2n1)c1ccc(F)cc1 [Compound 12, 2-[(N-ethyl-4-fluoro-anilino)methyl]-6-pyrimidin-5-yl-pyrido[1,2-a]pyrimidin-4-one] | 161 | 6.4
12 | CCN(Cc1cc(=O)n2c(-c3ccco3)cccc2n1)c1ccc(F)cc1 [Compound 13, 2-[(N-ethyl-4-fluoro-anilino)methyl]-6-(2-furyl)pyrido[1,2-a]pyrimidin-4-one] | 172 | 0.371
13 | CCN(Cc1cc(=O)n2c(C#N)cccc2n1)c1ccc(F)cc1 [Compound 14, 2-[(N-ethyl-4-fluoro-anilino)methyl]-4-oxo-pyrido[1,2-a]pyrimidine-6-carbonitrile] | 163 | 5.8
14 | CCN(Cc1cc(=O)n2c(Br)cccc2n1)c1ccc(F)cc1 [Compound 15, 6-bromo-2-[(N-ethyl-4-fluoro-anilino)methyl]pyrido[1,2-a]pyrimidin-4-one] | 159 | 6.2
15 | CCNC(=O)c1c(C)ccc2nc(COc3ccc(F)cc3)cc(=O)n12 [Compound 16, N-ethyl-2-[(4-fluorophenoxy)methyl]-7-methyl-4-oxo-pyrido[1,2-a]pyrimidine-6-carboxamide] | 159 | 3.6
16 | CCNC(=O)c1c(C)ccc2nc(Cn3nc(C(F)(F)F)cc3C3CC3)cc(=O)n12 [Compound 17, 2-[[5-cyclopropyl-3-(trifluoromethyl)pyrazol-1-yl]methyl]-N-ethyl-7-methyl-4-oxo-pyrido[1,2-a]pyrimidine-6-carboxamide] | 148 | 4
17 | CCNC(=O)c1c(C)ccc2nc(Cn3nc(C4CC4)cc3C(F)(F)F)cc(=O)n12 [Compound 18, 2-[[3-cyclopropyl-5-(trifluoromethyl)pyrazol-1-yl]methyl]-N-ethyl-7-methyl-4-oxo-pyrido[1,2-a]pyrimidine-6-carboxamide] | 122 | 16.2
18 | CCNC(=O)c1c(C)ccc2nc(Cc3cccc(C#N)c3F)cc(=O)n12 [Compound 19, 2-[(3-cyano-2-fluoro-phenyl)methyl]-N-ethyl-7-methyl-4-oxo-pyrido[1,2-a]pyrimidine-6-carboxamide] | 65 | 
19 | CCNC(=O)c1cccc2nc(Cn3nc(C(F)(F)F)cc3C3CC3)cc(=O)n12 [Compound 20, 2-[[5-cyclopropyl-3-(trifluoromethyl)pyrazol-1-yl]methyl]-N-ethyl-4-oxo-pyrido[1,2-a]pyrimidine-6-carboxamide] | 116 | 7.4
20 | CCNC(=O)c1cccc2nc(Cc3cccc(C#N)c3F)cc(=O)n12 [Compound 21, 2-[(3-cyano-2-fluoro-phenyl)methyl]-N-ethyl-4-oxo-pyrido[1,2-a]pyrimidine-6-carboxamide] | 43 | 
21 | CNC(=O)c1c(C)ccc2nc(Cc3cccc(C(F)(F)F)c3F)cc(=O)n12 [Compound 22, 2-[[2-fluoro-3-(trifluoromethyl)phenyl]methyl]-N,7-dimethyl-4-oxo-pyrido[1,2-a]pyrimidine-6-carboxamide] | 69 | 
22 | CNC(=O)c1c(C)ccc2nc(Cc3cccc(Cl)c3F)cc(=O)n12 [Compound 23, 2-[(3-chloro-2-fluoro-phenyl)methyl]-N,7-dimethyl-4-oxo-pyrido[1,2-a]pyrimidine-6-carboxamide] | 59 | 
23 | CNC(=O)c1c(C)ccc2nc(Cc3cccc(C4CC4)c3F)cc(=O)n12 [Compound 24, 2-[(3-cyclopropyl-2-fluoro-phenyl)methyl]-N,7-dimethyl-4-oxo-pyrido[1,2-a]pyrimidine-6-carboxamide] | 67 | 
24 | CNC(=O)c1c(C)ccc2nc(Cc3cccc(C#N)c3F)cc(=O)n12 [Compound 25, 2-[(3-cyano-2-fluoro-phenyl)methyl]-N,7-dimethyl-4-oxo-pyrido[1,2-a]pyrimidine-6-carboxamide] | 51 | 
25 | CNC(=O)c1c(C)ccc2nc(Cc3cccc(C#N)c3F)c(F)c(=O)n12 [Compound 26, 2-[(3-cyano-2-fluoro-phenyl)methyl]-3-fluoro-N,7-dimethyl-4-oxo-pyrido[1,2-a]pyrimidine-6-carboxamide] | 34 | 
26 | CCN(Cc1cc(=O)n2c(C(=O)NC)c(C)ccc2n1)c1ccc(F)cc1 [Compound 27, 2-[(N-ethyl-4-fluoro-anilino)methyl]-N,7-dimethyl-4-oxo-pyrido[1,2-a]pyrimidine-6-carboxamide] | 162 | 2.7
27 | CCNC(=O)c1c(C)ccc2nc(Cn3ccc(C(F)(F)F)n3)cc(=O)n12 [Compound 28, N-ethyl-7-methyl-4-oxo-2-[[3-(trifluoromethyl)pyrazol-1-yl)methyl]pyrido[1,2-a]pyrimidine-6-carboxamide] | 60 | 
28 | CNC(=O)c1c(C)ccc2nc(Cn3nc(C(F)(F)F)cc3C3CC3)cc(=O)n12 [Compound 29, 2-[[5-cyclopropyl-3-(trifluoromethyl)pyrazol-1-yl]methyl]-N,7-dimethyl-4-oxo-pyrido[1,2-a]pyrimidine-6-carboxamide] | 147 | 5.9
